Assays:
PDH phosphatase = PDH phosphatase activation assay; assay type: biochemical; details: 100µM
Description: (§1) Methods for obtaining A-type and P-type mediators are set out in Caro et al, 1997, and in WO98/11116 and WO98/11117. Protocols for determining characteristic IPG biological activities such as PDH activation, PKA inhibition, acetylCoA activation, fructose-1,6-bis-phosphatase activity and lipogenesis are well known in the art, e.g. as described in Caro et al^[14].
(§2) The compounds of the invention can be tested for one or more the characteristic IPG-P and/or IPG-A activities mentioned above to determine whether they will be suitable for use a IPG mimetics or antagonists. Preferred assays measure the effect of the compounds on PDH phosphatase, PKA or lipogenesis. Protocols for these assays are provided in Caro et al ^[14]. The compounds can also be tested to determine whether they activate or inhibit other enzymes involved in insulin signalling mechanism, such as glucose-6-phosphatase.
In particular, preferred compounds having 1,6 linkages are good activators of PDH phosphatase activity.

PKA = PKA inhibition assay; assay type: biochemical
Description: as §1, §2

| SMILES | PDH % activation (PDH phosphatase) [%] | PKA % inhibition (PKA; 0.1µM) [%] | PKA % inhibition (PKA; 1µM) [%] | PKA % inhibition (PKA; 10µM) [%] |
| --- | --- | --- | --- | --- |
| CO[C@H]1[C@H](O)[C@@H](O)[C@@H](O[C@H]2O[C@H](CO)[C@H](O)[C@H](O)[C@H]2N)[C@H](O)[C@@H]1O [RGL1025, O-(2-amino-2deoxy-D-galactopyranosyl)-α(1,6)-D-3-O-methyl-chiro-inositol.] | 17 | 48 | -13 |  |
| CO[C@H]1[C@H](O)[C@@H](O)[C@@H](O[C@H]2O[C@H](CO)[C@@H](O)[C@H](O)[C@H]2N)[C@H](O)[C@@H]1O [RGL1024, O-(2-amino-2-deoxy-D-glucopyranosyl)-α(1,6)-D-3-O-methyl-chiro-inositol.] | 65 | 17 | 34 | 2 |
| CO[C@H]1[C@H](O)[C@@H](O)[C@@H](O[C@@H]2O[C@H](CO)[C@@H](O)[C@H](O)[C@H]2N)[C@H](O)[C@@H]1O [RGL1015, O-(2-amino-2-deoxy-D-glucopyranosyl)-β(1,6)-D-3-O-methyl-chiro-inositol.] | 38 | 14 | 15 |  |

— EP1409500B1, “ALKYLATED INOSITOLGLYCANS AND THEIR USES” (Rodaris Pharmaceuticals Limited, priority 2000, dated 2001)
